Experimental findings from patent US6335459B1, “Aryl carboxylic acid and aryl tetrazole derivatives as IP receptor modulators” (Syntex (U.S.A.) LLC, priority 1998, dated 2002) are described below.

The term melting point denotes the temperature of the solid-liquid transition.

Counter-ions that a name gives are not always drawn.

The compound `O=C(O)COc1cccc(/C=C\COC(=O)N(c2ccccc2)c2ccccc2)c1` (as salt: salt) [Example 9, Cis-[3-(3-Diphenylcarbamoyloxypropenyl)phenoxy]acetic acid] showed a melting point of 132.5 to 135 °C.

In turn, `O=C(O)COc1cccc(/C=C\CCOC(=O)N(c2ccccc2)c2ccccc2)c1` (as salt: salt) [Example 10A, cis-[3-(4-diphenylcarbamoyloxybut-1-enyl)phenoxy]acetic acid tert-butylamine salt] registered a melting point of 112.5 to 112.8 °C.

`O=C(O)COc1cccc(/C=C\COC(=O)N(Cc2ccccc2)c2ccccc2)c1` (as salt: salt) [Example 10B, cis-{3-[3-(benzylphenylcarbamoyloxypropenyl)phenoxy]acetic acid tert-butylamine salt] registered a melting point of 107 to 108.5 °C.

With `O=C(O)CCc1cccc(/C=C\COC(=O)N(c2ccccc2)c2ccccc2)c1` (as salt: salt) [Example 13, cis-3-[3-(3-Diphenylcarbamoyloxypropenyl)phenyl]propionic acid], the melting point is 131.8 to 132.4 °C.

Take `O=C(O)COc1cccc(COC(=O)N(c2ccccc2)c2ccccc2)c1Cl` [Example 1, {2-Chloro-3-[(diphenylcarbamoyloxy)methyl]phenoxy}acetic acid]: the melting point fell in the range of 182.2 to 182.9 °C.

The compound `Cc1c(COC(=O)N(c2ccccc2)c2ccccc2)cccc1OCC(=O)O` [Example 2, {3-[(Diphenylcarbamoyloxy)methyl]-2-methylphenoxy}acetic acid] registered a melting point of 180.1 to 180.7 °C.

The compound `O=C(O)COc1cccc(COC(=O)N(c2ccccc2)c2ccccc2)c1` [Example 4, {3-[(Diphenylcarbamoyloxy)methyl]phenoxy}acetic acid] returned a melting point of 142.2 to 143.8 °C.

For `O=C(O)COc1cccc(/C=C/COC(=O)N(c2ccccc2)c2ccccc2)c1` [Example 6, Trans-[3-(3-Diphenylcarbamoyloxypropenyl)phenoxy}acetic acid], the melting point lay in the range of 112.4 to 113.7 °C.

For `Cc1c(/C=C\COC(=O)N(c2ccccc2)c2ccccc2)cccc1OCC(=O)O` [Example 8, Cis-[3-(3-Diphenylcarbamoyloxypropenyl)-2-methylphenoxy]acetic acid], the melting point lay in the range of 133.4 to 135.5 °C.

`CC(C)(C)N.O=C(O)CCCOc1cccc(/C=C\COC(=O)N(c2ccccc2)c2ccccc2)c1` [Example 10A, cis-4-[3-(3-diphenylcarbamoyloxypropenyl)phenoxy]butyric acid tert-butylamine salt] showed a melting point of 102 to 106 °C.

Compound `O=C(O)CCCCOc1cccc(/C=C\COC(=O)N(c2ccccc2)c2ccccc2)c1` [Example 10A, cis-5-[3-(3-diphenylcarbamoyloxypropenyl)phenoxy]pentanoic acid] showed a melting point of 56.3 to 56.7 °C.

Compound `CC(C)(C)N.O=C(O)COc1cccc(/C=C\CCCCOC(=O)N(c2ccccc2)c2ccccc2)c1` [Example 10A, cis-[3-(6-diphenylcarbamoyloxyhex-1-enyl)phenoxy]acetic acid tert-butylamine salt] gave a melting point of 87 to 88.5 °C.

Consider `O=C(O)Cc1cccc(CCOC(=O)N(c2ccccc2)c2ccccc2)c1` [Example 12, [3-(2-diphenylcarbamoyloxyethyl)phenyl]acetic acid], for which the melting point is 123 to 123.3 °C.

Consider `Cc1c(CCCOC(=O)N(c2ccccc2)c2ccccc2)cccc1CC(=O)O` [Example 12, [3-(3-diphenylcarbamoyloxypropyl)-2-methylphenyl]acetic acid], for which the melting point fell in the range of 128.7 to 129.2 °C.

As for `O=C(O)Cc1cccc(CCCCOC(=O)N(c2ccccc2)c2ccccc2)c1` [Example 12, [3-(4-diphenylcarbamoyloxybutyl)phenyl]acetic acid], the melting point lay within 117.8 to 119.6 °C.

In turn, `O=C(O)Cc1cccc(CCCCCOC(=O)N(c2ccccc2)c2ccccc2)c1` [Example 12, [3-(5-diphenylcarbamoyloxypentyl)phenyl]acetic acid] returned a melting point of 128.1 to 128.7 °C.

`O=C(O)Cc1cccc(CCCCCCOC(=O)N(c2ccccc2)c2ccccc2)c1` [Example 12, [3-(6-diphenylcarbamoyloxyhexyl)phenyl]acetic acid] gave a melting point of 99.8 to 101.7 °C.

`CC(C)(C)N.O=C(O)Cc1cccc(/C=C\CCOC(=O)N(c2ccccc2)c2ccccc2)c1` [Example 14A, cis-[3-(4-diphenylcarbamoyloxybut-1-enyl)phenyl]acetic acid tert-butylamine salt] gave a melting point of 151.2 to 153.1 °C.

`CC(C)(C)N.O=C(O)c1cccc(/C=C\COC(=O)N(c2ccccc2)c2ccccc2)c1` [Example 14B, cis-3-(3-diphenylcarbamoyloxypropenyl)benzoic acid tert-butylamine salt] came in with a melting point of 180.5 to 184 °C.

In the case of `CC(C)(C)N.O=C(O)c1cccc(/C=C\CCOC(=O)N(c2ccccc2)c2ccccc2)c1` [Example 14B, cis-3-(4-diphenylcarbamoyloxybut-1-enyl)benzoic acid tert-butylamine salt], the melting point lay within 172.8 to 176.8 °C.

`CC(C)(C)N.CC(CCc1cccc(CC(=O)O)c1)OC(=O)N(c1ccccc1)c1ccccc1` (stereo not drawn) [Example 14C, [3-(3-diphenylcarbamoyloxybutyl)phenyl]acetic acid tert-butylamine salt] returned a melting point of 112.3 to 113.1 °C.
